US20140120060A1, “TREATMENT OF RHEUMATOID ARTHRITIS AND ASTHMA USING PI3 KINASE INHIBITORS” (INFINITY PHARMACEUTICALS, INC., priority 2012, published 2014)
Values after ≈ are worked out from the molar mass of the structure shown. Values joined by “and” are separate entries in the source; they are usually repeats but may differ in a detail not shown here. Equal values may be shown once. “Also recorded” adds a separate entry of the source. Read-outs that look alike come from different tables or passages of the source. Marks after values point to notes of the source that are not given here.

What was measured:
[1] = Pharmacokinetics in BALB/c mice; type: in vivo, mouse
[2] = tested on: hemodynamic and electrocardiographic parameters; test: Cardiovascular study in instrumented cynomolgus monkey; type: in vivo
Excerpt: Four non-naive, male monkeys implanted with radiotelemetry transmitters were utilized during the conduct of this study.

[3] = Pharmacokinetics in Beagle dogs; type: in vivo, dog; settings: PO 5 mg/kg
[4] = tested on: LPS-induced pulmonary inflammation; test: Murine model of LPS-induced lung inflammation; type: in vivo, mice; settings: 3 mg/kg PO 60 minutes prior to LPS; 6 h after challenge
Description: Multiple parameters of pulmonary inflammation were determined 6 h after LPS challenge. Instillation of LPS induced significant influx of leukocytes, mostly neutrophils, into the airways, as assessed by counting the number of cells in the bronchoalveolar lavage (BAL) fluid.

[5] = Plasma protein binding, rat plasma; type: in vitro ADME; settings: 100 μM (41700 ng/mL)
Excerpt: (§1) […]. […] […].

[6] = Plasma protein binding, monkey plasma; type: in vitro ADME; settings: 100 μM (41700 ng/mL)
Excerpt: as §1

[7] = Plasma protein binding, human plasma; type: in vitro ADME
Excerpt: as §1

[8] = tested on: developing or established type II collagen arthritis; test: Rat collagen-induced arthritis model, alone or in combination with methotrexate or etanercept; type: in vivo; settings: 2.5, 5 or 50 mg/kg daily oral, alone or in combination with MTX or etanercept
Description: Treatment was administered either alone or in combination with the reference compounds MTX, or etanercept. All rats were administered MTX, vehicle 2 (1% CMC in water), or vehicle 1 on days 0-20 in order to keep dose manipulations consistent for all groups. Animals were terminated on day 21. Efficacy evaluation was based on daily ankle caliper measurements, ankle diameter expressed as area under the curve (AUC), and terminal hind paw weights.

[9] = tested on: Caco-2 cell monolayers; test: Membrane permeability in Caco-2 cell monolayers; type: in vitro ADME, human
[10] = In vivo rat micronucleus assay
[11] = tested on: established type II collagen-induced arthritis; test: Rat collagen-induced arthritis model (established); type: in vivo
Description: Etanercept (10 mg/kg) was administered subcutaneously on days 10 and 13 as a positive control. The study was terminated on day 17.

[12] = tested on: ovalbumin-induced pulmonary inflammation; test: Rat ovalbumin allergic asthma model
[13] = tested on: developing adjuvant arthritis; test: Freund's complete adjuvant induced rat model of arthritis; type: in vivo
Excerpt: Freund's complete adjuvant induced arthritis in the rat is an experimental model of polyarthritis that has been widely used for nonclinical testing of numerous anti-arthritic agents that are either under nonclinical or clinical investigation, or are currently used as therapeutics in this disease.

[14] = tested on: PBMCs; test: R848 induced cytokine production in PBMCs; type: cell-based, human
Description: These experiments were conducted using PBMCs.

[15] = target: T1, PI3K-β (Homo sapiens, UniProt P42338); test: PI3K-β specific assay in platelets (thrombin peptide, activated GPIIb/IIIa); type: cell-based
T1 construct: from tissue; host or cells: platelets in whole blood

[16] = target: PI3K δ (Homo sapiens, UniProt O00329); test: Clinical study in healthy adult subjects: basophil activation (CD63 on CCR3+ basophils); type: in vivo; parameters: from tissue; host or cells: blood basophils (CCR3+) of healthy adult subjects
[17] = Pharmacokinetics in cynomolgus monkeys; type: in vivo, monkey
[18] = In vitro genetic toxicity studies
[19] = tested on: DTH ear swelling; test: Murine model of delayed type hypersensitivity (DNFB); type: in vivo
Description: The animals were subsequently challenged with DNFB on the pinna of the ear on day 5 to initiate an inflammatory reaction that was measured 24 hours later.

[20] = target: hERG channel current (Homo sapiens, UniProt Q12809); test: In vitro hERG assay; type: cell-based
[21] = monkey, in vivo, cynomolgus monkeys, IV 1 mg/kg
[22] = monkey, in vivo, cynomolgus monkeys, PO 5 mg/kg suspension

Sequence of hERG channel current (Q12809 whole entry): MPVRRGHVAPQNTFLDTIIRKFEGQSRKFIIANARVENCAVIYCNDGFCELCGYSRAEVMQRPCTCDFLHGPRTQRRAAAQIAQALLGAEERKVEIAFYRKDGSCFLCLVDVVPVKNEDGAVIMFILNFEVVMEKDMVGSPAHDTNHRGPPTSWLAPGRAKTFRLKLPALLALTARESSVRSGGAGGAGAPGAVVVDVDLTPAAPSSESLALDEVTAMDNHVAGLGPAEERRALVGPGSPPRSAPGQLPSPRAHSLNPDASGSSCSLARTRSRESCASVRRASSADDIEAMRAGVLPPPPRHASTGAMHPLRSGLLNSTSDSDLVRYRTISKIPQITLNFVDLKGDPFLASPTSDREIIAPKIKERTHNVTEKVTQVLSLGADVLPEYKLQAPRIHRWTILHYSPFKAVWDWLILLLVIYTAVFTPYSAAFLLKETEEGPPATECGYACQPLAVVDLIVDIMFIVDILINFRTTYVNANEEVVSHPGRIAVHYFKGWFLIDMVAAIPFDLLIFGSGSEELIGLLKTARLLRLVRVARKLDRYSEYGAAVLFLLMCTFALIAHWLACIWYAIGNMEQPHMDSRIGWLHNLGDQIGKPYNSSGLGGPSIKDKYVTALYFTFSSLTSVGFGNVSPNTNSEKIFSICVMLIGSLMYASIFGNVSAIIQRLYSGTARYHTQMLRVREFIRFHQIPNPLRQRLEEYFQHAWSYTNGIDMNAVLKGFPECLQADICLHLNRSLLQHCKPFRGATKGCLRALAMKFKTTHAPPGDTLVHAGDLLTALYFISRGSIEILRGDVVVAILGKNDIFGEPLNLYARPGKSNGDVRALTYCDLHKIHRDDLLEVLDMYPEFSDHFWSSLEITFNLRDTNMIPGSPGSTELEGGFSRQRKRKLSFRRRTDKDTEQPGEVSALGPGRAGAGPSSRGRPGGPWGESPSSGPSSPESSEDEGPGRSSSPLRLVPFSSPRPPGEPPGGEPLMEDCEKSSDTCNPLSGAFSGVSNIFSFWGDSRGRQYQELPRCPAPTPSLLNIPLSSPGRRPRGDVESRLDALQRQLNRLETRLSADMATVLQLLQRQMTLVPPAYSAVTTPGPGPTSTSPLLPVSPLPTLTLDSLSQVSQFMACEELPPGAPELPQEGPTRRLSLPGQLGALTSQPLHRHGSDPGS
Sequence of PI3K δ (O00329 whole entry): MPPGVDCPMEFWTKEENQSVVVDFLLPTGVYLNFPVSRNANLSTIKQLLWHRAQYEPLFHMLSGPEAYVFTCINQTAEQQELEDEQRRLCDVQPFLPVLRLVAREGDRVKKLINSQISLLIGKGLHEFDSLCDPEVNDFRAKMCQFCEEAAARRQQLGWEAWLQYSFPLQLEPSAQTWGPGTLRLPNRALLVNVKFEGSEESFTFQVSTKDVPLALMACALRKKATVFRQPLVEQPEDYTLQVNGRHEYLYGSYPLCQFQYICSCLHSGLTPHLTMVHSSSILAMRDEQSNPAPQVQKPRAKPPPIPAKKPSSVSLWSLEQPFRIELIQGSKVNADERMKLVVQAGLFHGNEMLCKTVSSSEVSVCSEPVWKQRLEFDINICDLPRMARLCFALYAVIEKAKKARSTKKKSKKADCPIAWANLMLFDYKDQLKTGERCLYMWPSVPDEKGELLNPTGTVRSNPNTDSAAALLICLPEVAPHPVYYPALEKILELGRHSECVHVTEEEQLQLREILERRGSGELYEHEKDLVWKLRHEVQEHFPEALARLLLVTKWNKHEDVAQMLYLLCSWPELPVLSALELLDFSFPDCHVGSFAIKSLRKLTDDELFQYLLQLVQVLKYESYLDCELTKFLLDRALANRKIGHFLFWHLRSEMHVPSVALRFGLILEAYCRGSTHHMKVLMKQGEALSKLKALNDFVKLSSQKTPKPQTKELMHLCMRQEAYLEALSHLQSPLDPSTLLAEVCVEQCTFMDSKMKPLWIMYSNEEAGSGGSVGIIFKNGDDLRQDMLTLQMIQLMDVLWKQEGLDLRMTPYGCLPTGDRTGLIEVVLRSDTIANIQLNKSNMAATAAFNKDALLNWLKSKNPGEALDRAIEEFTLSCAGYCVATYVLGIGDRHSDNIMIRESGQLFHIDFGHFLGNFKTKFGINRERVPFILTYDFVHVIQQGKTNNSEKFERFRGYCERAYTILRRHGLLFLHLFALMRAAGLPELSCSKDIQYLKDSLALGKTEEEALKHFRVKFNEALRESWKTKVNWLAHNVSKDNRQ
Sequence of PI3K δ (P27986 whole entry partner): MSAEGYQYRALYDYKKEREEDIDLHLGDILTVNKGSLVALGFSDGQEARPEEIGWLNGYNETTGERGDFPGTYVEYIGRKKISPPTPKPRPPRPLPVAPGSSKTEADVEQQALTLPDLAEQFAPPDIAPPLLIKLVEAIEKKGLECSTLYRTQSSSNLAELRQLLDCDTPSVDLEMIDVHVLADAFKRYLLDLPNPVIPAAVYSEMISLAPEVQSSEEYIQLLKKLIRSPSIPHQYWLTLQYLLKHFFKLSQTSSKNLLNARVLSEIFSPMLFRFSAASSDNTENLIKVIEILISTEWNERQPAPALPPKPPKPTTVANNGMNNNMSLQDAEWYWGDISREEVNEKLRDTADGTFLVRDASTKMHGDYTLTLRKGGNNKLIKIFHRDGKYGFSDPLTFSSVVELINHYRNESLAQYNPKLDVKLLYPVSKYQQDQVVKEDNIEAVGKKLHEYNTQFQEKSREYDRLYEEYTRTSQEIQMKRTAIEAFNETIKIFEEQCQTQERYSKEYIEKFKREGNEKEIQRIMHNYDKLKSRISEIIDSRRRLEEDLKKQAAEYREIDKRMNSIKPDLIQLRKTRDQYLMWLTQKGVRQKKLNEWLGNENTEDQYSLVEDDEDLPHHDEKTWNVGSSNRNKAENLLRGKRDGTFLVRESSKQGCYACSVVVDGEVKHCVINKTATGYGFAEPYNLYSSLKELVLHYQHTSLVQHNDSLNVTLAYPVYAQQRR
T1 sequence (P42338 whole entry): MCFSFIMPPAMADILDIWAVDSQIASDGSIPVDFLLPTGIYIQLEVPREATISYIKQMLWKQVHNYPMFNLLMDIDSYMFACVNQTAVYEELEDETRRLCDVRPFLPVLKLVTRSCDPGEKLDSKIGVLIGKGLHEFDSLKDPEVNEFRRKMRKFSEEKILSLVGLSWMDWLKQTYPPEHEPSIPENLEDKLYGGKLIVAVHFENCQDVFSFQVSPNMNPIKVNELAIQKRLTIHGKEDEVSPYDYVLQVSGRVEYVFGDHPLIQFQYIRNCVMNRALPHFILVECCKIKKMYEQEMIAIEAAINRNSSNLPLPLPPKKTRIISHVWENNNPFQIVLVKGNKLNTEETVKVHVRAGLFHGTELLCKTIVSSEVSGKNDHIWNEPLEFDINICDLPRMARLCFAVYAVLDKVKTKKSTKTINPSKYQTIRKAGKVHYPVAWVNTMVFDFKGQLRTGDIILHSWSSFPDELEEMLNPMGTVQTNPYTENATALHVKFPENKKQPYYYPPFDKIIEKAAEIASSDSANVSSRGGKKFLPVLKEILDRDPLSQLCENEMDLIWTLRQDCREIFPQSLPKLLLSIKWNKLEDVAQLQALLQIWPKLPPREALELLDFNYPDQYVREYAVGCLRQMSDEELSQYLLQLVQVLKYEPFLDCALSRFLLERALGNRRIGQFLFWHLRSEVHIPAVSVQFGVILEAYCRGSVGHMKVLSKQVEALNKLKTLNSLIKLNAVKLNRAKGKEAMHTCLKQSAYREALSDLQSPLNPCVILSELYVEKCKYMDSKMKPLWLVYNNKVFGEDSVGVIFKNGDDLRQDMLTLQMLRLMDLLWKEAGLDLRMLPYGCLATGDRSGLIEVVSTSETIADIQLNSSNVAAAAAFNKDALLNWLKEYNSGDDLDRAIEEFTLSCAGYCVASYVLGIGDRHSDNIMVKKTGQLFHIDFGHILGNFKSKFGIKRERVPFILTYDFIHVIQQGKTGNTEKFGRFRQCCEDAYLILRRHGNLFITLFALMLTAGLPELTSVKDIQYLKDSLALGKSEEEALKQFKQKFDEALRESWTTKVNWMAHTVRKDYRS
T1 sequence (P27986 whole entry partner): as the sequence (P27986 whole entry partner) above

With `C[C@H](Nc1ncnc2[nH]cnc12)c1cc2cccc(Cl)c2c(=O)n1-c1ccccc1` [Compound 292] the Foral ([1]; BALB/c mice, PO 10 mg/kg suspension, calculated using AUC0-last) was 7% and 7^i %, the half-life ([1]; BALB/c, mouse, in vivo, iv, 10 mg/kg) was less than 2 h and the “hemodynamic or electrocardiographic parameters” value ([2]; male cynomolgus monkeys, single oral dose of 5, 30 and 150 mg/kg) was “No Compound 292-related effects”. For the same compound, the “waveform abnormalities or arrhythmias” value ([2]; up to 150 mg/kg) was “no waveform abnormalities or arrhythmias”, the Foral ([3]; calculated using 0.5 mg/kg IV dose as reference and AUC0-last) was 97^g,i % and the Foral ([3]; calculated using 1 mg/kg IV dose as reference and AUC0-last) was 40% and 40^h,i %. The “LPS-induced total leukocyte and neutrophil influx in BAL fluid” value [4] was “inhibited”, the “protein bound in rat plasma” value [5] was 85.8% and the “protein bound in monkey plasma” value [6] was 76.8%. The “protein bound in human plasma” value [7] was 95%, the “protein bound in human plasma” value ([7]; 100 μM (41700 ng/mL)) was 85.9% and the “effects on parameters of developing and established type II collagen arthritis” value [8] was “beneficial effects”. The tolerability [8] was “well tolerated”, the cell membrane permeability [9] was “moderate” and the “adverse effect in micronucleus assay” value [10] was “no direct adverse effect”. For the same compound, the “mean ankle diameter at the end of the treatment period vs vehicle” value ([11]; PO QD days 10-16, all doses 0.5-10 mg/kg, not at 0.1 mg/kg) was “significantly decreased”, the “serum IgE levels vs vehicle controls” value ([11]; rat CIA model) was “Significant increases” and the “summed ankle histological scores” value ([11]; rat CIA model) was “prevented inflammation and protected joint bone and cartilage”. For the same compound, the “levels of TNF-α, KC/GRO, IL-13 and IL-5 in the BAL” value ([12]; 10 mg/kg PO) was “inhibited; also recorded: significantly suppressed”, the “neutrophils and eosinophils in the BAL” value ([12]; 1 and 10 mg/kg PO, 48 hours after re-challenge) was “significantly reduced” and the “leukocyte migration into the bronchoalveolar space” value ([12]; FIG. 16) was “inhibited”. The “reduction of final paw weights” value ([13]; 5 mg/kg BID) was 30%, the “reduction of histopathologic bone resorption” value ([13]; 5 mg/kg BID) was 72% and the “reduction of histopathologic inflammation” value ([13]; 5 mg/kg BID) was 18%. For the same compound, the “inhibition of ankle diameter AUC (d7-14) increase” value (“inhibition … (d7-14) increase” below) ([13]; 5 mg/kg BID PO days 5-14) was 24%, the “reduction of final paw weights” value ([13]; 10 mg/kg QD) was 23% and the “reduction of histopathologic bone resorption” value ([13]; 10 mg/kg QD) was 67%. The “reduction of histopathologic inflammation” value ([13]; 10 mg/kg QD) was 15%, the “inhibition … (d7-14) increase” value ([13]; 10 mg/kg QD PO days 5-14) was 31% and the “reduction of final paw weights” value ([13]; 50 mg/kg QD) was 98%. The “reduction of histopathologic bone resorption” value ([13]; 50 mg/kg QD) was 100%, the “reduction of histopathologic inflammation” value ([13]; 50 mg/kg QD) was 88% and the “inhibition … (d7-14) increase” value ([13]; 50 mg/kg QD PO days 5-14) was 95%. The “R848 induced IFN-α” value [14] was “did not detectably affect”, the “R848 induced IL-1” value [14] was “slightly inhibited” and the “R848 induced IL-6” value [14] was “did not detectably affect”. The “R848 induced IL-8” value [14] was “did not detectably affect”, the “R848 induced TNF-α” value [14] was “did not detectably affect” and the “window between PI3K-γ and PI3K-β inhibition in whole blood” value [15] was “about 4 fold”. The “Emax (reduction of basophil activation vs plasma concentration)” value ([16]; FIG. 21) was 85%, the basophil activation ([16]; single and multiple doses, all dose levels, maximum at 1 hr post dose) was “dose-dependent reduction” and the Foral ([17]; cynomolgus monkeys, PO 5 mg/kg suspension) was 40%. The AUC(0-inf) [17, 21] was 2380 ng·h/mL, the AUC(0-t) [17, 21] was 2360 ng·h/mL and the Tmax [17, 21] was 0.083 h. For the same compound, the clearance [17, 21] was 7.17 mL/min/kg, the half-life ([17]; monkey, in vivo, cynomolgus monkeys, IV 1 mg/kg, read-out: T1/2 (converted)) was 5 h and the Vd ([17]; monkey, in vivo, cynomolgus monkeys, IV 1 mg/kg, read-out: Vss) was 1.27 L/kg. For the same compound, the AUC(0-inf) [17, 22] was 4680 ng·h/mL, the AUC(0-t) [17, 22] was 4600 ng·h/mL and the Cmax [17, 22] was 1330 ng/mL. For the same compound, the Tmax [17, 22] was 1.5 h, the half-life ([17]; monkey, in vivo, cynomolgus monkeys, PO 5 mg/kg suspension, read-out: T1/2 (converted)) was 5.4 h and the half-life ([17]; monkey, in vivo, monkeys, read-out: half-life (converted)) was 5 h. The genetic toxicity [18] was “no genetic toxicity”, the ear swelling ([19]; 0.3, 1, 3 and 10 mg/kg PO) was “Dose dependent inhibition” and the “inhibition of ear swelling vs vehicle control” value ([19]; highest dose group (10 mg/kg PO, 30 minutes prior to DNFB challenge)) was “approximately 50%”. The “Hill coefficient (hERG)” value [20] was 1.3 and the “IC50 on hERG potassium current” value [20] was 20.8 µg/mL (≈ 49.9 µM).
